Test results published in patent US6646008B1, “Treatment of disease states which result from neoplastic cell proliferation using PPAR-γ activators and compositions useful therefor” (The Salk Institute for Biological Studies, priority 1996, dated 2003).

Experiments:
HL-60 cells [1] = test: Cell cycle analysis of HL-60 cells by flow cytometry (DNA content); format: cell-based; details: for Cell Cycle Phase, % G1 / Cell Cycle Phase, % G2 / Cell Cycle Phase, % S: day 3, 100 nM 9-cis RA, 100 nM LG268, 3 μM PG-J2
Method: (§1) HL-60 cells were plated at a density of 2×10^5 cells/ml and were treated with:
(§2) 100 nM 9-cis retinoic acid (9-cis RA; which is both RAR and RXR active),
(§3) 100 nM LG268 (which is RXR selective),
(§4) 3 μM prostaglandin J2 (PG-J2; which is PPARγ active), or
(§5) a combination of 100 nM of LG268 and 3 μM of PG-J2.
Cell cycle analysis was carried out on day 3 using standard DNA content determination by flow cytometry.

HL-60 cells [2] = test: Growth of HL-60 cells in the presence of ligands; format: cell-based; details: 100 nM 9-cis RA, 100 nM LG268, 3 μM PG-J2, cell numbers after 3, 5 or 7 days
Method: as §1, §2, §3, §4, §5
Cell numbers were determined after 3, 5 or 7 days of culture, as illustrated in FIG. 1.

THP-1 leukemia cells = test: CD14 differentiation antigen flow cytometry in THP-1 cells; format: cell-based; details: 5 days, 100 nM LG268, 3 μM 15-deoxy-Δ12,14-prostaglandin-J2
Method: (§6) HL-60 and THP-1 leukemia cells were seeded at a ensity of 2×10^5 cells/ml and cultured in RPMI containing 10% charcoal-stripped fetal calf serum. Cells were treated with either vehicle alone, or 10 nM AM580, 100 nM LG268, or 3 μM 15-deoxy-Δ12,14-prostaglandin-J2. After 5 days, cells were incubated with monoclonal antibody to the monocyte-specific differentiation antigen CD14, and analyzed by flow cytometry using a Becton Dickinson FACScan.

NIH-vector cells = test: Adipocyte differentiation (oil red O lipid staining) of NIH-vector cells; format: cell-based; details: for % lipid containing cells: NIH (vector) cells, treated 7 days at confluence, 1 μM pioglitazone, 50 nM LG268, or 5 μM thiazolidinedione and 50 nM LG268, oil red O after four more days, range over three experiments
Method: Simultaneous exposure of competent cells to both PPARγ and RXR-specific ligand was investigated to determine if such combination might provide a stronger adipogenic signal than a PPARγ ligand alone. […] It has previously been shown that wild-type NIH-3T3 cells express RXRα but not PPARγ. NIH-vector and NIH-PPARγ cells were cultured as described in the Examples. […] After an additional four days of culture, cells were fixed and stained with oil red O. Data are presented in Table 1 as the range of morphologically recognizable differentiation observed for each line over three separate experiments.

NIH-PPARγ cells = test: Adipocyte differentiation (oil red O lipid staining) of NIH-3T3 fibroblasts expressing PPARγ from a retroviral vector; format: cell-based; details: for % lipid containing cells: NIH-PPARγ cells, treated 7 days at confluence, 1 μM pioglitazone, 50 nM LG268, or 5 μM thiazolidinedione and 50 nM LG268, oil red O after four more days, range over three experiments
Method: Simultaneous exposure of competent cells to both PPARγ and RXR-specific ligand was investigated to determine if such combination might provide a stronger adipogenic signal than a PPARγ ligand alone. […] NIH-vector and NIH-PPARγ cells were cultured as described in the Examples.

LS857 cells = test: Differentiation of primary liposarcoma cell strain LS857 (lipid accumulation, morphology); format: cell-based, human; details: 7 days
HL-60 leukemia cells = test: CD14 differentiation antigen flow cytometry in HL-60 cells; format: cell-based; details: 5 days, 10 nM AM580, 100 nM LG268, 3 μM 15-deoxy-Δ12,14-prostaglandin-J2
Method: as §6

LS175 cells = test: Differentiation of primary liposarcoma cell strain LS175; format: cell-based, human; details: 10 μM pioglitazone, 7 days
Method: Liposarcomas have presumably acquired one or more genetic defects that interfere with the course of normal adipocyte development. The observation that PPARγ is expressed consistently in these tumors raised the possibility that the malignant cells might be forced to complete the differentiation program by maximally iactivating the PPARγ pathway. To address this possibility, primary cells isolated from three human liposarcomas were cultured in vitro. Primary cell strains LS857 and LS175 were derived from well differentiated liposarcomas and LS707 was derived from an intermediate grade myxoid/round cell liposarcoma (see Table 5). High grade pleomorphic liposarcoma cells could not be expanded to sufficient numbers to permit studies of differentiation. A primary leiomyosarcoma cell line LM203 was cultured as a control. To confirm that these cultures consisted of malignant tumor-derived cells, cytogenetic analysis was performed.
When cultured in the presence of fetal bovine serum and insulin, conditions permissive for adipocyte differentiation, all three cell lines maintain a fibroblastic morphology. LS175 cells contained small amounts of stainable lipid under these conditions. […] The degree of morphologically recognizable differentiation varied from 40% in the LS857 cells to 75% in the LS175 cells. […]

Row | Molecule | effect on cell cycle progression (HL-60 cells [1]; day 3) | Cell Cycle Phase, % G1 (HL-60 cells [1]) [%] | Cell Cycle Phase, % G2 (HL-60 cells [1]) [%] | Cell Cycle Phase, % S (HL-60 cells [1]) [%] | effect on cell growth (HL-60 cells [2]) | median fluorescence (CD14) (THP-1 leukemia cells) | % lipid containing cells (NIH-vector cells) [%] | adipogenic effect (NIH-vector cells; NIH-vector cells) | % lipid containing cells (NIH-PPARγ cells) | adipocyte differentiation (NIH-PPARγ cells; confluent NIH-PPARγ cells, 7 days, 50 nM LG268 and/or 1 μM pioglitazone) | adipocyte differentiation (LS857 cells; 50 nM LG268, 10 μM pioglitazone) | lipid accumulation, oil red O, macroscopic view (LS857 cells; 5 μM thiazolidinedione (BRL 49653 or pioglitazone), 50 nM LG268, stained after four more days) | median fluorescence (CD14) (HL-60 leukemia cells) | degree of morphologically recognizable differentiation (LS175 cells) [%] | degree of morphologically recognizable differentiation (LS857 cells; 10 μM pioglitazone) [%]
1 | CC1=C(/C=C/C(C)=C\C=C\C(C)=C\C(=O)O)C(C)(C)CCC1 [9-cis RA, 9-cis retinoic acid] | inhibits cell cycle progression | 70.5 | 10.2 | 19.2 | inhibit cell growth |  |  |  |  |  |  |  |  |  | 
2 | Cc1cc2c(cc1C1(c3ccc(C(=O)O)cn3)CC1)C(C)(C)CCC2(C)C [LG268, 6-[1-(3,5,5,8,8-pentamethyl-5,6,7,8-tetrahydronaphthalen-2-yl)cyclopropyl]nicotinic acid] |  | 54.5 | 14.4 | 31.1 | only a marginal ability to promote cell differentiation | 18 | 0 | no effect | 50-65% | significant stimulation of adipocyte differentiation | significant degree of adipocyte differentiation | significant lipid accumulation | 138 |  | 
3 | CCc1ccc(CCOc2ccc(CC3SC(=O)NC3=O)cc2)nc1 (stereo not shown) [pioglitazone] |  |  |  |  |  |  | 0 |  | 60-70% |  |  |  |  | 75 | 40
4 | AM580 |  |  |  |  |  |  |  |  |  |  |  |  | 26 |  | 
